Test [1] deals with T1, Recombinant human AOC2 protein (Homo sapiens, UniProt O75106).
T1 construct: Eli Lilly (provided, not a catalogue product)
T1 sequence (O75106 1-756): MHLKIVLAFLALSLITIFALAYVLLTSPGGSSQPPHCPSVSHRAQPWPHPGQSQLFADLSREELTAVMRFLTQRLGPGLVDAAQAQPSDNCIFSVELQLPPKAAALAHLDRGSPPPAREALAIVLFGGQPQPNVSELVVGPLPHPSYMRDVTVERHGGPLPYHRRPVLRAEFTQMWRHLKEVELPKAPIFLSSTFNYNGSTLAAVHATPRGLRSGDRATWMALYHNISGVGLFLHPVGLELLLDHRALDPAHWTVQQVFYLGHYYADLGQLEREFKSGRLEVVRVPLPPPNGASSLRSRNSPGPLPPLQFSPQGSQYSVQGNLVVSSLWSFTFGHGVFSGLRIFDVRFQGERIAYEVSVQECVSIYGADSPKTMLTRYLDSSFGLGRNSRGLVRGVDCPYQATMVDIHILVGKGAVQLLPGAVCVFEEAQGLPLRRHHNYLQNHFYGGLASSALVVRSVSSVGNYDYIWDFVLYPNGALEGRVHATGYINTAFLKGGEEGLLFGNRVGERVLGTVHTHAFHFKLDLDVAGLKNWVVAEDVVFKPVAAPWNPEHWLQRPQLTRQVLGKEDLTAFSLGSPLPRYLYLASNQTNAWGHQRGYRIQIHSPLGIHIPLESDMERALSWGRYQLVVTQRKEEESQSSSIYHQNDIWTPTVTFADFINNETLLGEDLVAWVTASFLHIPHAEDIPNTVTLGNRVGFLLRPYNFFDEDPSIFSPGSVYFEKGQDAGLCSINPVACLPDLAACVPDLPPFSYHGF
In words: Inhibitory activity on AOC2. It counts as biochemical. The procedure: Recombinant human AOC2 protein (provided by Eli Lilly). Other reagents are the same as those in Biological Test Example 1. The final concentration of test compound in 10 μL reaction system was 100 μM to 5 nM when AOC2 was detected, while other reaction conditions were the same as those in Biological Test Example 1. Data analysis and IC50 calculation method were the same as those in Biological Test Example 1.

The target in test [2] is T2, Recombinant human AOC1/DAO protein (Homo sapiens, UniProt P19801).
T2 construct: purchased R&D systems 8298-AO
T2 sequence (P19801 20-751): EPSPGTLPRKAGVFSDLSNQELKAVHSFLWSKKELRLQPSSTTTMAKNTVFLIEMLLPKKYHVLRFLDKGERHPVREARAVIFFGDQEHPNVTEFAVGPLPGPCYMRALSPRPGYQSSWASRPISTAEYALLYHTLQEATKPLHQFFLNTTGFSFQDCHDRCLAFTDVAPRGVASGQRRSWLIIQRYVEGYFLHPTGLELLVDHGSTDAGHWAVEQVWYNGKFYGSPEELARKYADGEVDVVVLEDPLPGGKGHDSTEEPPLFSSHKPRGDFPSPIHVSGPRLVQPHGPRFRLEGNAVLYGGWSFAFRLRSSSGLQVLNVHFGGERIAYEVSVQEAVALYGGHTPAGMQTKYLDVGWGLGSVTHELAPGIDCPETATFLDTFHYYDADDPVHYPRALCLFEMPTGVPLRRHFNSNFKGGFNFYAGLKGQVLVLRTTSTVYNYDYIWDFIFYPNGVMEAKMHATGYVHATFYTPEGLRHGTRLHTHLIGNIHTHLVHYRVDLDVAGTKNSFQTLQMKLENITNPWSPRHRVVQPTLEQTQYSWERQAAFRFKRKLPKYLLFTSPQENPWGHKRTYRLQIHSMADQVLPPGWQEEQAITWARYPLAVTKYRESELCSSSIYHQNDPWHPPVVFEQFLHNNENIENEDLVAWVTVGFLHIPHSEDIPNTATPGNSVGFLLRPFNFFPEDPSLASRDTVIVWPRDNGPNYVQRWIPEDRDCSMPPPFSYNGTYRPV
The test is described as follows: Inhibitory activity on AOC1 (Amplex UltraRed). It counts as biochemical. The procedure: Recombinant human AOC1/DAO protein was purchased from R&D systems (Cat: 8298-AO). Amplex UltraRed was purchased from Thermo scientific (Cat: A36006). HRP (Cat: P8250) and Putrescine (Cat: V900377) were purchased from Sigma. Enzyme reaction buffer (50 mM HEPES, 120 mM NaCl, 5 mM KCl, 2 mM CaCl2, 1.4 mM MgCl2, 0.001% Tween-20, pH7.4) was prepared. Test compound was dissolved in DMSO and diluted by 3-fold concentration in gradient. The final concentration of test compound in 10 μL reaction system was 100 μM to 5 nM when AOC1 was detected. The content of DMSO in detection reaction was 1%. After the solution of test compound in DMSO was diluted in the enzyme reaction buffer at a volume ratio of 1:25, 10 μL of mixture was added to each well of detection plate. 4× substrate mixture (containing 400 μM Putrescine, 4 U/mL HRP, 4 μM Amplex UltraRed) was prepared in the enzyme reaction buffer, 10 μL of which was added to each well. 20 μL of AOC1 protein diluted in enzyme reaction buffer was added to each well at final concentration 0.4 nM in 40 μL reaction system. Synergy Neo 2 was used to read the plate for detection. The instrument was set at 30° C., 530 nm excitation wavelength, 590 nm emission wavelength. Detection was conducted once every minute for 30 minutes continuously. The enzyme activity was calculated based on the increased signal of each well from the 10th minute to the 30th minute. The value was converted into inhibition rate by the following formula Inhibition rate=(Signalpositive−Signaltest)/(Signalpositive−Signalnegative)×100%
Signalpositive was positive control without test compound. Signalnegative was negative control without test compound and AOC1, and Signaltest was detection value of different compounds at each concentration. IC50 value was calculated by using 4 parameter curve fitting.

The results in this text go back to patent US12258336B2, “Preparation of seimicarbazide-sensitive amine oxidase inhibitor and use thereof” (SHANGHAI ENNOVABIO PHARMACEUTICALS CO., LTD., priority 2018, dated 2025).

Each structure is given as a SMILES string.

As for `COC1CC2CC1CN2c1ncc(OC/C(=C/F)CN)cn1` (stereo not shown) [Example 2], the half-maximal inhibitory concentration (IC50) in test [1] was above 1 µM; in test [2], 0.1 to 10 µM.

For `CC1(C)CN(C2COC2)CCN1c1ncc(OC/C(=C/F)CN)cn1` [Example 5], the half-maximal inhibitory concentration (IC50) in test [1] is 0.1 to 1 µM; in test [2], above 10 µM.

`CC1(C)CN(c2ncc(OC/C(=C/F)CN)cn2)CCN1C1COC1` [Example 10]: the IC50 in test [1] is above 1 µM; in test [2], above 10 µM.

As for `NC/C(=C\F)COc1cnc(N2CCN(c3cnc(N4CCN(C5COC5)CC4)nc3)CC2)nc1` [Example 9], the results for the IC50 in test [1] and in test [2] were 0.1 to 1 µM and 0.1 to 10 µM, respectively.

With `NC/C(=C/F)COc1cnc(N2CCN(C3COC3)CC2)nc1` [Example 8], the IC50 was above 1 µM in test [1] and above 10 µM in test [2].

Consider `NC/C(=C\F)COc1cnc(N2CCN(C3COC3)CC2)nc1` [Example 4, (E)-3-fluoro-2-(((2-(4-(oxbutan-3-yl)piperazin-1-yl)pyrimidin-5-yl)oxo)methyl)prop-2-en-1-amine], for which the IC50 in test [1] is above 1 µM; in test [2] it was above 10 µM.

On to `CC1CN(c2ncc(OC/C(=C/F)CN)cn2)CC(C)N1C1COC1` (stereo not shown) [Example 1, (E)-2-(((2-(3,5-dimethyl-4-(oxbutan-3-yl)piperazin-1-yl)pyrimidin-5-yl)oxo)methyl)-3-fluoroprop-2-en-1-amine], for which the IC50 was 0.1 to 1 µM in test [1] and above 10 µM in test [2].

For `NC/C(=C\F)COc1cnc(N2CCC3(CC2)COC3)nc1` [Example 3], the IC50 is above 1 µM in test [1] and 0.1 to 10 µM in test [2].

For the compound `N#Cc1cc(OC/C(=C/F)CN)cnc1N1CCN(C2COC2)CC1` [Example 7], the half-maximal inhibitory concentration (IC50) in test [1] is above 1 µM; in test [2], above 10 µM.

For `NC/C(=C\F)COc1cnc(N2CC3CCC(C2)N3C2COC2)nc1` [Example 6], the values for the IC50 in test [1] and in test [2] were 0.1 to 1 µM and above 10 µM, respectively.

Turning to `COC1CC2CCC(C1)N2c1ncc(OC/C(=C/F)CN)cn1` (stereo not shown) [Example 12], the results for the concentration for half-maximal inhibition (IC50) in test [1] and in test [2] were above 1 µM and above 10 µM, respectively.
